From US20040018501A1, “Methods and systems for analyzing complex biological systems” (priority 2001, published 2004)

Columns and labels:
[1] = tested on: Arabidopsis thaliana plants; assay: SOA1 phenotypic analysis of herbicide-treated plants; type: in vivo; conditions: for characteristic symptoms (phenotype): herbicide-treated plants; for Symptom Class: three-week-old plants, foliar spray
[2] = tested on: Saccharomyces cerevisiae wild type strain BY4743; assay: AF1 yeast metabolite analysis by GC-MS and LC-MS; type: cell-based
[3] = tested on: Arabidopsis thaliana; assay: MOA1 gene expression profiling (22,000-gene microarray); conditions: regulated genes compared to internal list of essential genes
From the text: Lyophilized tissues were first re-hydrated using [sequence] (Ambion, Inc., Austin, Tex.).

[4] = tested on: Arabidopsis thaliana; assay: MOA1 biochemical (metabolite) profiling by LC-MS and GC-MS; conditions: within one hour after spraying
[5] = numeric value standardized to mock treated

SMILES: c1cc[n+]2c(c1)-c1cccc[n+]1CC2 [Diquat]
- characteristic symptoms (phenotype) [1]: rapid and widespread leaf necrosis
- tMic Dev. [1, 5]: 2
- Symptom Class [1]: 7

SMILES: CN(C)C(=O)Nc1ccc(Cl)c(Cl)c1 [Diuron]
- characteristic symptoms (phenotype) [1]: rapid and widespread leaf necrosis
- newLeafAnthocyanins Dev. [1, 5]: newLeafAnthocyanins 0
- tMic Dev. [1, 5]: 1
- Symptom Class [1]: 7

SMILES: CC[C@@H]([C@H](C)O)n1ncn(-c2ccc(N3CCN(c4ccc(OC[C@@H]5CO[C@@](Cn6cncn6)(c6ccc(F)cc6F)C5)cc4)CC3)cc2)c1=O [Posaconazoie]
- Fold Change of luteolin ([2]; LC): 0

SMILES: CC(=O)N1CCN(c2ccc(OCC3COC(Cn4ccnc4)(c4ccc(Cl)cc4Cl)O3)cc2)CC1 (stereo not shown) [Ketoconazole]
- # Compounds perturbed ([2]; P < 0.1, 2×MIC, two hours): 15

SMILES: CC[C@@H]([C@H](C)O)n1ncn(-c2ccc(N3CCN(c4ccc(OC[C@@H]5CO[C@@](Cn6cncn6)(c6ccc(F)cc6F)C5)cc4)CC3)cc2)c1=O [Posaconazote]
- Fold Change, porphobilinogen ([2]; detected metabolite porphobilinogen, platform nLC): 0

SMILES: COc1nc(C)nc(NC(=O)NS(=O)(=O)c2ccccc2Cl)n1 [Chlorsulfuron]
- characteristic symptoms (phenotype) [1]: anthocyanin accumulation in the older leaves accompanied by chlorosis of the newly emerging leaves
- No. of Lethal Genes Altered [3]: 8

SMILES: COC(=O)NS(=O)(=O)c1ccc(N)cc1 [Asulam]
- No. of Lethal Genes Altered [3]: 5

SMILES: O=C(O)c1ccccc1C(=O)Nc1cccc2ccccc12 [Naptalam]
- No. of Lethal Genes Altered [3]: 3

SMILES: Nc1nc[nH]n1 [Amitrole]
- characteristic symptoms (phenotype) [1]: leaf bleaching and leaf enlargement

SMILES: O=C(O)c1cc(Oc2ccc(C(F)(F)F)cc2Cl)ccc1[N+](=O)[O-] [Acifluorfen]
- characteristic symptoms (phenotype) [1]: Necrotic leaf flecks

SMILES: C[n+]1ccc(-c2cc[n+](C)cc2)cc1 [Paraquat]
- characteristic symptoms (phenotype) [1]: rapid and widespread leaf necrosis
- Symptom Class [1]: 7

SMILES: CCc1cnc(C2=NC(C)(C(C)C)C(=O)N2)c(C(=O)O)c1 (stereo not shown) [Imazethapyr]
- characteristic symptoms (phenotype) [1]: anthocyanin accumulation in the older leaves accompanied by chlorosis of the newly emerging leaves

SMILES: COC(=O)c1cc(Oc2ccc(Cl)cc2Cl)ccc1[N+](=O)[O-] [Bifenox]
- characteristic symptoms (phenotype) [1]: Necrotic leaf flecks

SMILES: CCSC(=O)N(CC(C)C)CC(C)C [Butylate]
- stress-related metabolites [4]: neither butylate nor chlorpropham treatment resulted in many changes

SMILES: CSc1nnc(C(C)(C)C)c(=O)n1N [Metribuzin]
- characteristic symptoms (phenotype) [1]: rapid and widespread leaf necrosis

SMILES: CC(C)C1(C)N=C(c2ncccc2C(=O)O)NC1=O (stereo not shown) [Imazapyr]
- characteristic symptoms (phenotype) [1]: anthocyanin accumulation in the older leaves accompanied by chlorosis of the newly emerging leaves

SMILES: O=C(O)COc1ccc(Cl)cc1Cl [2,4-D]
- tMic Dev. [1, 5]: 2
- Symptom Class [1]: 5

SMILES: CC(C)N1C(=O)c2ccccc2NS1(=O)=O [Bentazon]
- characteristic symptoms (phenotype) [1]: rapid and widespread leaf necrosis

SMILES: CCNc1nc(Cl)nc(NC(C)C)n1 [Atrazine]
- characteristic symptoms (phenotype) [1]: rapid and widespread leaf necrosis

SMILES: CC(C)OC(=O)Nc1cccc(Cl)c1 [Chloropropham]
- stress-related metabolites [4]: neither butylate nor chlorpropham treatment resulted in many changes

SMILES: OC(Cn1cncn1)(Cn1cncn1)c1ccc(F)cc1F [Fluconazole]
- Fold Change of TMS mevalonic acid lactone ([2]; GC): 0.1434
- Fold Change of squalene ([2]; GC): 0.1999
- Fold Change of tetradecanoic acid ([2]; GC): 0.07967
- Fold Change of threonine2 ([2]; GC): 0.5053
- Fold Change of threonine3 ([2]; GC): 0.2513
- Fold Change of tms glutamine3 ([2]; GC): 0.7271
- Fold Change of tms lysine4 ([2]; GC): 0.3657
- Fold Change of tms tyrosine2 ([2]; GC): 0.8643
- Fold Change of tms tyrosine3 ([2]; GC): 0.3321
- Fold Change of valine ([2]; GC): 0.2727
- Fold Change of retinoic acid ([2]; nLC): 0
- Fold Change of salicylic/HObenzoic ([2]; nLC): 0
- Fold Change of selenoDLmethionine ([2]; nLC): −0.5748
- Fold Change of serine ([2]; nLC): 0.3936
- Fold Change of shikimic acid ([2]; nLC): 0
- Fold Change of sinapinic acid ([2]; nLC): 0
- Fold Change of sorbitol/mannitol ([2]; nLC): 0.365
- Fold Change of succinic ([2]; nLC): 0.3094
- Fold Change of sucrose ([2]; nLC): 0.3104
- Fold Change of sugar-phosphate ([2]; nLC): −0.05306
- Fold Change of tetradecanoic acid ([2]; nLC): 0.5495
- Fold Change of threonine/homoserin ([2]; nLC): 0.3257
- Fold Change of thymine ([2]; nLC): 0
- Fold Change of tryptophan ([2]; nLC): 1.649
- Fold Change of tyrosine ([2]; nLC): 0.2303
- Fold Change of uracil ([2]; nLC): 1.256
- Fold Change of uridine ([2]; nLC): 0.3463
- Fold Change of urocanic acid ([2]; nLC): 0
- Fold Change of valine ([2]; nLC): 0.3235
- Fold Change of xanthosineDiH2O ([2]; nLC): 0
- Fold Change of zeatin ([2]; nLC): 0
- Fold Change of riboflavin ([2]; pLC): 0
- Fold Change of selenoDLmethionine ([2]; pLC): −0.6865
- Fold Change of serine ([2]; pLC): 0.11
- Fold Change of sugar-phosphate ([2]; pLC): 0
- Fold Change of thiamine ([2]; pLC): 0
- Fold Change of threonine/homoserin ([2]; pLC): 0.1604
- Fold Change of thymine ([2]; pLC): 0
- Fold Change of tryptophan ([2]; pLC): 0
- Fold Change of tyrosine ([2]; pLC): 0.1099
- Fold Change of uric acid ([2]; pLC): 0
- Fold Change of urocanic acid ([2]; pLC): 0
- Fold Change of xanthosine(diH2O) ([2]; pLC): 0
- Fold Change of zeatin ([2]; pLC): 0
- Fold Change of campesterol ([2]; platform GC): 0
- Fold Change of desmosterol ([2]; platform GC): 0
- Fold Change of octadecanoic acid ([2]; platform GC): 0.082
- Fold Change of abscisic acid ([2]; platform LC): 0
- Fold Change of adenosine ([2]; platform LC): 0
- Fold Change of 4-methylcatechol ([2]; platform nLC): 0
- Fold Change of 5hydroxyLtryptophan ([2]; platform nLC): 0
- Fold Change of 6-benzylaminopurine ([2]; platform nLC): 0
- Fold Change of NacetylDglucosamine ([2]; platform nLC): 0
- Fold Change of NacetylLornithine ([2]; platform nLC): 0
- Fold Change of abscisic acid ([2]; platform nLC): 0
- Fold Change of adenine ([2]; platform nLC): 0
- Fold Change of adenosine ([2]; platform nLC): 0
- Fold Change of anthranilic acid ([2]; platform nLC): 0
- Fold Change of argininosuccinate ([2]; platform nLC): 0
- Fold Change of benzoic acid ([2]; platform nLC): 0
- Fold Change of catechol ([2]; platform nLC): 0
- Fold Change of cinnamic acid ([2]; platform nLC): 0
- Fold Change of citricanoic/itaconi ([2]; platform nLC): 0
- Fold Change of citrulline ([2]; platform nLC): 0
- Fold Change of coumaric acid ([2]; platform nLC): 0
- Fold Change of cytosine ([2]; platform nLC): 0
- Fold Change of diaminopimelic acid ([2]; platform nLC): 0
- Fold Change of dihydrofolic acid ([2]; platform nLC): 0
- Fold Change of estrone ([2]; platform nLC): 0
- Fold Change of farnesol ([2]; platform nLC): 0
- Fold Change of folic acid ([2]; platform nLC): 0
- Fold Change of gibberellic ([2]; platform nLC): 0
- Fold Change of glutamine/lysine ([2]; platform nLC): 0.3309
- Fold Change of guanine ([2]; platform nLC): 0
- Fold Change of histidine ([2]; platform nLC): 0
- Fold Change of homogentisic/uric ([2]; platform nLC): 0
- Fold Change of hydrocortisone ([2]; platform nLC): 0
- Fold Change of indole3pyruvic acid ([2]; platform nLC): 0
- Fold Change of jasmonic acid ([2]; platform nLC): 0
- Fold Change of kinetin ([2]; platform nLC): 0
- Fold Change of luteolin ([2]; platform nLC): 0
- Fold Change of malonic acid ([2]; platform nLC): 0
- Fold Change of methionine ([2]; platform nLC): 0
- Fold Change of orotic acid ([2]; platform nLC): 0
- Fold Change of phenylpyruvic acid ([2]; platform nLC): 0
- Fold Change of phosphoenolpyruvate ([2]; platform nLC): 0
- Fold Change of pinitol ([2]; platform nLC): 0
- Fold Change of porphobilinogen ([2]; platform nLC): 0
- Fold Change of 4-aminobenzoic acid ([2]; platform pLC): 0
- Fold Change of 4-methylcatechol ([2]; platform pLC): 0
- Fold Change of 5hydroxyLtryptophan ([2]; platform pLC): 0
- Fold Change of 6benzylaminopurine ([2]; platform pLC): 0
- Fold Change of NacetylDglucosamine ([2]; platform pLC): 0
- Fold Change of NacetylLglutamate ([2]; platform pLC): 0
- Fold Change of allantoic acid ([2]; platform pLC): 0
- Fold Change of anthranilic acid ([2]; platform pLC): 0
- Fold Change of argininosuccinate ([2]; platform pLC): 0
- Fold Change of biotin ([2]; platform pLC): 0
- Fold Change of caffeine ([2]; platform pLC): 0
- Fold Change of citric acid TME ([2]; platform pLC): 0
- Fold Change of cytidine ([2]; platform pLC): 0
- Fold Change of cytosine ([2]; platform pLC): 0
- Fold Change of diaminopimelic acid ([2]; platform pLC): 0
- Fold Change of dihydrofolic acid ([2]; platform pLC): 0
- Fold Change of dipicolinic acid ([2]; platform pLC): 0
- Fold Change of folic acid ([2]; platform pLC): 0
- Fold Change of glucosamine ([2]; platform pLC): 0
- Fold Change of glucosamine6PO4 ([2]; platform pLC): 0
- Fold Change of histidine ([2]; platform pLC): 0
- Fold Change of hydrocortisone ([2]; platform pLC): 0
- Fold Change of itaconic acid dimes ([2]; platform pLC): 0
- Fold Change of kinetin ([2]; platform pLC): 0
- Fold Change of luteolin ([2]; platform pLC): 0
- Fold Change of niacinamide ([2]; platform pLC): 0
- Fold Change of nopaline ([2]; platform pLC): 0
- Fold Change of phosphoenolpyruvate ([2]; platform pLC): 0
- Fold Change of progesterone ([2]; platform pLC): 0
